Test results: PubChem BioAssay (NCI)
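Where inhibition never reached the appropriate level, the endpoint shown equals the highest concentration tested. Otherwise, values were interpolated linearly from a five-concentration, 48-hour dose response in 96-well plates. TGI is the concentration that stops growth completely.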

How the values were obtained:
Test in all cases: DTP human tumour cell line panel, 48 h
UO-31 renal = system: UO-31 renal
OVCAR-8 ovarian = system: OVCAR-8 ovarian
KM12 colon = system: KM12 colon
HOP-92 NSCLC = system: HOP-92 NSCLC
MALME-3M melanoma = system: MALME-3M melanoma
COLO 205 colon = system: COLO 205 colon
IGROV1 ovarian = system: IGROV1 ovarian
SK-MEL-2 melanoma = system: SK-MEL-2 melanoma
HL-60(TB) leukemia = system: HL-60(TB) leukemia
RXF 393 renal = system: RXF 393 renal

CC1=NC(=O)C(C)(c2ccccc2)N1CCc1ccccc1 (stereo not given)
TGI (UO-31 renal): > 100 µM
TGI (OVCAR-8 ovarian): > 100 µM
TGI (KM12 colon): > 100 µM
TGI (HOP-92 NSCLC): > 100 µM
TGI (MALME-3M melanoma): > 100 µM
TGI (COLO 205 colon): > 100 µM
TGI (IGROV1 ovarian): > 100 µM
TGI (SK-MEL-2 melanoma): > 100 µM
TGI (HL-60(TB) leukemia): > 100 µM
TGI (RXF 393 renal): > 100 µM

Fc1cc(C2=C[C@H](c3ccc(Cl)cc3)NC(=S)N2)c(Cl)cc1Cl
TGI (UO-31 renal): > 100 µM
TGI (OVCAR-8 ovarian): > 100 µM
TGI (KM12 colon): > 100 µM
TGI (HOP-92 NSCLC): > 100 µM
TGI (MALME-3M melanoma): > 100 µM
TGI (COLO 205 colon): > 100 µM
TGI (IGROV1 ovarian): > 100 µM
TGI (SK-MEL-2 melanoma): 96.2 µM
TGI (HL-60(TB) leukemia): 65.7 µM
TGI (RXF 393 renal): > 100 µM

COc1cc(/C=C/C(=O)c2sc(-n3nc(-c4ccccc4)cc3-c3ccccc3)nc2C)ccc1O
TGI (UO-31 renal): > 100 µM
TGI (OVCAR-8 ovarian): > 100 µM
TGI (KM12 colon): > 100 µM
TGI (HOP-92 NSCLC): > 100 µM
TGI (MALME-3M melanoma): > 100 µM
TGI (COLO 205 colon): > 100 µM
TGI (IGROV1 ovarian): > 100 µM
TGI (SK-MEL-2 melanoma): > 100 µM
TGI (HL-60(TB) leukemia): > 100 µM
TGI (RXF 393 renal): > 100 µM

O=C(O)C1C(C(=O)O)C2C(=O)C=CC1N2Cc1ccccc1 (stereo not given)
TGI (UO-31 renal): 3.72 µM
TGI (OVCAR-8 ovarian): > 100 µM
TGI (KM12 colon): 12.7 µM
TGI (HOP-92 NSCLC): 24.6 µM
TGI (MALME-3M melanoma): 8.73 µM
TGI (COLO 205 colon): 22.1 µM
TGI (IGROV1 ovarian): 27.1 µM
TGI (SK-MEL-2 melanoma): 24.1 µM
TGI (HL-60(TB) leukemia): 4.31 µM
TGI (RXF 393 renal): 7.51 µM

NC1CC(=O)c2cc(Cl)sc21 (stereo not given)
TGI (UO-31 renal): > 100 µM
TGI (OVCAR-8 ovarian): > 100 µM
TGI (KM12 colon): > 100 µM
TGI (HOP-92 NSCLC): > 100 µM
TGI (MALME-3M melanoma): > 100 µM
TGI (COLO 205 colon): > 100 µM
TGI (IGROV1 ovarian): > 100 µM
TGI (SK-MEL-2 melanoma): > 100 µM
TGI (HL-60(TB) leukemia): > 100 µM
TGI (RXF 393 renal): > 100 µM

C/C(CN1C(=O)c2ccccc2C1=O)=N\NS(=O)(=O)c1ccc(Br)cc1
TGI (UO-31 renal): > 100 µM
TGI (OVCAR-8 ovarian): > 100 µM
TGI (KM12 colon): > 100 µM
TGI (HOP-92 NSCLC): > 100 µM
TGI (MALME-3M melanoma): > 100 µM
TGI (COLO 205 colon): > 100 µM
TGI (IGROV1 ovarian): > 100 µM
TGI (SK-MEL-2 melanoma): > 100 µM
TGI (HL-60(TB) leukemia): > 100 µM
TGI (RXF 393 renal): > 100 µM

COc1cc(S(=O)(=O)Nc2ccc(-c3csc(N4C(=O)CSC4c4cccs4)n3)cc2)ccc1Cl (stereo not given)
TGI (UO-31 renal): > 100 µM
TGI (OVCAR-8 ovarian): > 100 µM
TGI (KM12 colon): 48.7 µM
TGI (HOP-92 NSCLC): > 100 µM
TGI (MALME-3M melanoma): 70.6 µM
TGI (COLO 205 colon): > 100 µM
TGI (IGROV1 ovarian): > 100 µM
TGI (SK-MEL-2 melanoma): 42.6 µM
TGI (HL-60(TB) leukemia): 41.5 µM
TGI (RXF 393 renal): 25.5 µM

c1csc(-c2cscc2-c2ccsc2)c1
TGI (UO-31 renal): > 100 µM
TGI (OVCAR-8 ovarian): > 100 µM
TGI (KM12 colon): > 85.6 µM
TGI (HOP-92 NSCLC): > 100 µM
TGI (MALME-3M melanoma): 95 µM
TGI (COLO 205 colon): > 100 µM
TGI (IGROV1 ovarian): > 100 µM
TGI (SK-MEL-2 melanoma): > 100 µM
TGI (HL-60(TB) leukemia): > 93.8 µM
TGI (RXF 393 renal): 68.3 µM

NC(=S)NNC(=O)/C(=C/c1ccc(/C=C(\NC(=O)c2ccccc2)C(=O)NNC(N)=S)cc1)NC(=O)c1ccccc1
TGI (UO-31 renal): > 100 µM
TGI (OVCAR-8 ovarian): > 100 µM
TGI (KM12 colon): > 100 µM
TGI (HOP-92 NSCLC): > 100 µM
TGI (MALME-3M melanoma): > 100 µM
TGI (COLO 205 colon): > 100 µM
TGI (IGROV1 ovarian): > 100 µM
TGI (SK-MEL-2 melanoma): > 100 µM
TGI (HL-60(TB) leukemia): > 31.6 µM
TGI (RXF 393 renal): > 100 µM

CCCCCCn1c(SCC)c2ccccc2c1-c1nc(F)nc(F)n1
TGI (UO-31 renal): > 100 µM
TGI (OVCAR-8 ovarian): > 100 µM
TGI (KM12 colon): > 100 µM
TGI (HOP-92 NSCLC): > 100 µM
TGI (MALME-3M melanoma): > 100 µM
TGI (COLO 205 colon): > 100 µM
TGI (IGROV1 ovarian): > 100 µM
TGI (SK-MEL-2 melanoma): > 100 µM
TGI (HL-60(TB) leukemia): > 100 µM
TGI (RXF 393 renal): > 100 µM

COc1ccc(/C=C(\Cl)c2ccc(OC)c(OC)c2)cc1OC
TGI (UO-31 renal): > 100 µM
TGI (OVCAR-8 ovarian): > 100 µM
TGI (KM12 colon): > 100 µM
TGI (HOP-92 NSCLC): > 100 µM
TGI (MALME-3M melanoma): > 100 µM
TGI (COLO 205 colon): > 100 µM
TGI (IGROV1 ovarian): > 100 µM
TGI (SK-MEL-2 melanoma): > 100 µM
TGI (HL-60(TB) leukemia): > 100 µM
TGI (RXF 393 renal): > 100 µM

O=P(O)(OCC(O)O)OCC(O)O
TGI (UO-31 renal): > 100 µM
TGI (OVCAR-8 ovarian): > 100 µM
TGI (KM12 colon): > 100 µM
TGI (HOP-92 NSCLC): > 100 µM
TGI (MALME-3M melanoma): > 100 µM
TGI (COLO 205 colon): > 100 µM
TGI (IGROV1 ovarian): > 100 µM
TGI (SK-MEL-2 melanoma): > 100 µM
TGI (HL-60(TB) leukemia): > 100 µM
TGI (RXF 393 renal): > 100 µM

O=C1NC(N2CCOCC2)=N/C1=C\c1cccs1
TGI (UO-31 renal): > 100 µM
TGI (OVCAR-8 ovarian): > 100 µM
TGI (KM12 colon): > 100 µM
TGI (HOP-92 NSCLC): > 100 µM
TGI (MALME-3M melanoma): > 100 µM
TGI (COLO 205 colon): > 100 µM
TGI (IGROV1 ovarian): > 100 µM
TGI (SK-MEL-2 melanoma): > 100 µM
TGI (HL-60(TB) leukemia): > 100 µM
TGI (RXF 393 renal): > 100 µM

O=S(=O)([O-])[O-].[Fe+2].c1ccc(/C(=N\Nc2ccccn2)c2ccccn2)cc1
TGI (UO-31 renal): 13.1 µM
TGI (OVCAR-8 ovarian): 10.8 µM
TGI (KM12 colon): 14.6 µM
TGI (HOP-92 NSCLC): 7.67 µM
TGI (MALME-3M melanoma): 10.1 µM
TGI (COLO 205 colon): 2.15 µM
TGI (IGROV1 ovarian): 5.46 µM
TGI (SK-MEL-2 melanoma): 5.74 µM
TGI (HL-60(TB) leukemia): 4.62 µM
TGI (RXF 393 renal): 11.7 µM

CCOC(=O)c1nc2ccc(C(F)(F)F)cc2nc1NCc1ccc(Cl)c(Cl)c1
TGI (UO-31 renal): > 100 µM
TGI (OVCAR-8 ovarian): > 100 µM
TGI (KM12 colon): > 100 µM
TGI (HOP-92 NSCLC): 40.4 µM
TGI (MALME-3M melanoma): 99.1 µM
TGI (COLO 205 colon): > 100 µM
TGI (IGROV1 ovarian): 55.4 µM
TGI (SK-MEL-2 melanoma): > 100 µM
TGI (HL-60(TB) leukemia): > 100 µM
TGI (RXF 393 renal): 81.5 µM

NC(=O)OCC(COc1ccc(Cl)cc1)OC(=O)c1ccccc1Cl (stereo not given)
TGI (UO-31 renal): 51.5 µM
TGI (OVCAR-8 ovarian): 54.3 µM
TGI (KM12 colon): 45.5 µM
TGI (HOP-92 NSCLC): 45.1 µM
TGI (MALME-3M melanoma): 48.6 µM
TGI (COLO 205 colon): 32.7 µM
TGI (IGROV1 ovarian): 59.9 µM
TGI (SK-MEL-2 melanoma): 34.1 µM
TGI (HL-60(TB) leukemia): 41.5 µM
TGI (RXF 393 renal): 25.7 µM

NCC1(N2CCOCC2)C2CCCC21CO (stereo not given)
TGI (UO-31 renal): > 100 µM
TGI (OVCAR-8 ovarian): > 100 µM
TGI (KM12 colon): > 100 µM
TGI (HOP-92 NSCLC): > 100 µM
TGI (MALME-3M melanoma): > 100 µM
TGI (COLO 205 colon): > 100 µM
TGI (IGROV1 ovarian): > 100 µM
TGI (SK-MEL-2 melanoma): > 100 µM
TGI (HL-60(TB) leukemia): > 100 µM
TGI (RXF 393 renal): > 100 µM
